In PubChem BioAssay (NCI):
“And” between values parts separate entries of the source, which are not always exact repeats. Identical values can stand only once.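 These data come from cells grown in 96-well plates and exposed to compound for 48 hours at five concentrations. At the GI50, growth is halved. TGI: total growth inhibition.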

Experiments:
Assay in all cases: growth of human tumour cells (NCI), 48 h
ACHN renal = test system: ACHN renal
HCT-116 colon = test system: HCT-116 colon
HCT-15 colon = test system: HCT-15 colon
HOP-92 NSCLC = test system: HOP-92 NSCLC
KM12 colon = test system: KM12 colon
MDA-MB-435 = test system: MDA-MB-435
OVCAR-3 ovarian = test system: OVCAR-3 ovarian
SK-MEL-2 melanoma = test system: SK-MEL-2 melanoma
SR leukemia = test system: SR leukemia
SW-620 colon = test system: SW-620 colon

SMILES	GI50 (ACHN renal)	TGI (ACHN renal)	GI50 (HCT-116 colon)	TGI (HCT-116 colon)	GI50 (HCT-15 colon)	TGI (HCT-15 colon)	GI50 (HOP-92 NSCLC)	TGI (HOP-92 NSCLC)	GI50 (KM12 colon)	TGI (KM12 colon)	GI50 (MDA-MB-435)	TGI (MDA-MB-435)	GI50 (OVCAR-3 ovarian)	TGI (OVCAR-3 ovarian)	GI50 (SK-MEL-2 melanoma)	TGI (SK-MEL-2 melanoma)	GI50 (SR leukemia)	TGI (SR leukemia)	GI50 (SW-620 colon)	TGI (SW-620 colon)
CN1CCCN(CCNc2nccc(-c3c(-c4cccc(O)c4)nc4sccn34)n2)S1(=O)=O	2.72 µM and 2.91 µM	75 µM and > 100 µM	2.96 µM and 4.39 µM	14.9 µM and 18.8 µM	7.12 µM and 5.51 µM	75 µM and 98.4 µM	12.1 µM and 16 µM	51.6 µM and 77.5 µM	11.7 µM and 9.82 µM	32.5 µM and 55.8 µM	0.285 µM and 0.438 µM	20.6 µM and > 71.8 µM	13.7 µM and 7.69 µM	75 µM and 99 µM	2.37 µM and 2.15 µM	7.29 µM and 6.74 µM	4.57 µM and 2.85 µM	35.2 µM and 27.8 µM	18.7 µM and 19.1 µM	75 µM and > 100 µM
C[n+]1cc2c3c(ccc2c2ccc4cc5c(cc4c21)OCO5)OCO3	0.788 µM	2.09 µM	0.227 µM	0.593 µM	0.631 µM	2.29 µM	0.584 µM	2.05 µM	0.455 µM	1.64 µM	0.317 µM	1.11 µM	0.278 µM	0.758 µM	1.33 µM	2.79 µM	0.258 µM	–	0.174 µM	0.36 µM
CC1(C)CCC(C)(C)c2cc(C(=O)Nc3ccc(C(=O)O)cc3)ccc21	–	> 61.2 µM	–	37.4 µM	–	63 µM	–	> 100 µM	–	> 61.4 µM	–	> 74.3 µM	–	40.4 µM	–	44.7 µM	–	> 81.9 µM	–	> 100 µM
COc1cc(/C=C2\CN(C)CC3=C2Nc2nc(SC)[nH]c(=O)c2C3c2cc(OC)c(OC)c(OC)c2)cc(OC)c1OC (centres undefined)	1.93 µM	3.55 µM	1.66 µM	3.17 µM	2.07 µM	4.79 µM	3.4 µM	10.9 µM	1.7 µM	3.21 µM	2.51 µM	8.46 µM	2.64 µM	6.72 µM	9.92 µM	33.3 µM	1.48 µM	> 100 µM	2 µM	4.41 µM
